Measured values reported in patent publication US20230095530A1, “COMPOUND USED AS RET KINASE INHIBITOR AND APPLICATION THEREOF” (TYK Medicines, Inc., priority 2019, published 2023).
pIC50: −log10 of the molar value. Where two headings read alike, the source gives them in different places.

Assays:
[1] = target: wild-type RET kinase (Homo sapiens, UniProt P07949); assay: Kinase activity assay against wild-type RET at ATP Km (33P-ATP, filter-binding); format: biochemical; conditions: ATP Km concentration, 10 concentrations
wild-type RET kinase, sequence (P07949 29-1114): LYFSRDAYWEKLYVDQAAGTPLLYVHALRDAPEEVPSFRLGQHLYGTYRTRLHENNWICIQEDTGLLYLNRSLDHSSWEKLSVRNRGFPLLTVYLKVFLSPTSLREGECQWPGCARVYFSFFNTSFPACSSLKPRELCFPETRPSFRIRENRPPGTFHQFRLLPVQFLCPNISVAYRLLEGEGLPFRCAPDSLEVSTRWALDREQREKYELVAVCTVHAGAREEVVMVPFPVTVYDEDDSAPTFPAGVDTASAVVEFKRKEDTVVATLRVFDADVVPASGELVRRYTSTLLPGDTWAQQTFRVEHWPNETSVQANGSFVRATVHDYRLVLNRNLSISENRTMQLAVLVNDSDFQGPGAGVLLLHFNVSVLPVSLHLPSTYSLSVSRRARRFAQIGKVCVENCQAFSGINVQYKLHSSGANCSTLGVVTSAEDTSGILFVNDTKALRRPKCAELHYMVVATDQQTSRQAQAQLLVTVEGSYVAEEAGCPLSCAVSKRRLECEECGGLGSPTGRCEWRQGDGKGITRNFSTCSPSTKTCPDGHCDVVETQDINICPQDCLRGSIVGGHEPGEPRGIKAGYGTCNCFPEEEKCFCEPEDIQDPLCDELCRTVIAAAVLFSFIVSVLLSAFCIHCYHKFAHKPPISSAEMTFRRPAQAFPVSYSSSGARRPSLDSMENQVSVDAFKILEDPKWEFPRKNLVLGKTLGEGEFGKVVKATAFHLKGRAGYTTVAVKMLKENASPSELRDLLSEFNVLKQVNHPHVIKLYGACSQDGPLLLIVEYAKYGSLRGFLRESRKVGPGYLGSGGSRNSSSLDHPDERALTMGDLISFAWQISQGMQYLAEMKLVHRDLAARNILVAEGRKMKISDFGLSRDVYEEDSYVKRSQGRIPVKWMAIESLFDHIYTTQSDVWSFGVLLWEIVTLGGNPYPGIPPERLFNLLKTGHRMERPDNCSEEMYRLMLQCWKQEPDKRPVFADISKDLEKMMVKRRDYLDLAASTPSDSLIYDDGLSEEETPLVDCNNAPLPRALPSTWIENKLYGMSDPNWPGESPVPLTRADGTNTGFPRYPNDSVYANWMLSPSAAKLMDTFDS
Method: […]. The biological activity screening of the compounds will be determined repeatedly at 10 concentrations.
Each sample was prepared into a solution with a concentration of 10 mM.
The test compound was dissolved in 100% dimethyl sulfoxide to a specific concentration. Integra Viaflo Assist was used to assist DMSO for (continuous) dilution.
Adding kinase into the newly prepared basic reaction buffer:
Adding any desired cofactors to the substrate solution;
Adding wild-type RET kinase into the substrate solution and gently mixing;
Using Acoustic technology (Echo 550; nanoliter range) to feed the compounds in 100% of dimethyl sulfoxide into the kinase reaction mixture and incubated at room temperature for 20 minutes.
Adding 33P-ATP (specific activity 10 Ci/1) into the reaction mixture to start the reaction.
Incubated at room temperature for 2 hours;
Radioactivity was detected by filter-binding method;
Kinase activity data was expressed as the percentage of remaining kinase activity in the test sample compared to the vehicle (dimethyl sulfoxide) reaction. Prism (GRAPHPAD software) was used to obtain IC50 value and curve-fitting.

[2] = test system: tumor patients with RET fusion and mutation; conditions: phase I, cited from earlier work

| SMILES | pIC50 [1] | further results |
| --- | --- | --- |
| CO[C@]1(C(=O)N[C@@H](C)c2ccc(-n3cc(F)cn3)nc2)CC[C@H](c2nc(C)cc(Nc3cc(C)[nH]n3)n2)CC1 [BLU-667] |  | ORR ([2]; patients with medullary thyroid carcinoma): 40%; ORR ([2]; patients with non-small cell lung cancer): 50%; overall remission rate (ORR) ([2]; tumor patients with RET fusion and mutation): 45% |
| COc1ccc(CN2CCC(n3cc(-c4cc(-c5cnn(C)c5)cn5ncc(C#N)c45)cn3)C2)cn1 (stereo not drawn) [Compound C1] | 8.81 |  |
| COc1ccc(CN2C3CC2CN(c2ccc(-c4cc(OCC(C)(C)O)cc5nccc(C#N)c45)cn2)C3)cn1 [Compound C3] | 6.65 |  |

Further lines, with some results ahead:

| pIC50 [1] | SMILES | further results |
| --- | --- | --- |
| 7.24 | COc1ccc(CN2CCC(n3ccc(-c4cc(-c5cnn(C)c5)cn5ncc(C#N)c45)cc3=O)CC2)cn1 [Compound C8] |  |
| 8.45 | COc1ccc(CN2CCCC(n3cc(-c4cc(-c5cnn(C)c5)cn5ncc(C#N)c45)cn3)C2)cn1 (stereo not drawn) [Compound C2] |  |
| 7.39 | COc1ccc(CN2CCC(n3ccc(-c4cc(-c5cnn(C)c5)cn5ncc(C#N)c45)cc3=O)C2)cn1 (stereo not drawn) [Compound C5] |  |
| 7.56 | COc1ccc(CN2CCCC(n3ccc(-c4cc(-c5cnn(C)c5)cn5ncc(C#N)c45)cc3=O)C2)cn1 (stereo not drawn) [Compound C7] |  |
